This is an account of results in article PMC7180948, “New Insights into 4-Anilinoquinazolines as Inhibitors of Cardiac Troponin I–Interacting Kinase (TNNi3K)” (Molecules, 2020).

What all share (experiment): biochemical
Common to all, as to parameters: KINOMEscan competition binding panel (Eurofins DiscoverX), single concentration, % inhibition
Common to all, as to conditions: read-out: 7 at 1 µM % inhibition

Assay [1] addresses T1, ABL1(F317I)-phosphorylated (Homo sapiens, UniProt P00519, F317I).
T1 construct: phosphorylated
A digest of the protocol:
(§1)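 KINOMEscan binding panel of >400 kinases, run by Eurofins DiscoverX, with compounds tested at a single concentration of 1 µM.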

The target in a further assay is T2, ARK5 (Homo sapiens, UniProt O60285).
T2 construct: gene NUAK1
Summed up: as §1

Another assay has as its target BRAF (Homo sapiens, UniProt P15056). Summed up: as §1
For a further assay, the target named is CAMK2A (Homo sapiens, UniProt Q9UQM7). A digest of the protocol: as §1
A further assay deals with CASK (Homo sapiens, UniProt O14936). A digest of the protocol:
as §1

Another assay deals with CDK7 (Homo sapiens, UniProt P50613). Summed up:
as §1

The target in a further assay is CDKL2 (Homo sapiens, UniProt Q92772). A digest of the protocol:
as §1

In another assay the target is CDKL3 (Homo sapiens, UniProt Q8IVW4). Summed up: as §1
The target of a further assay is CDKL5 (Homo sapiens, UniProt O76039). Summed up: as §1
A further assay deals with CSK (Homo sapiens, UniProt P41240). A digest of the protocol:
as §1

In the next assay the target is DAPK1 (Homo sapiens, UniProt P53355). A digest of the protocol: as §1
The next assay addresses DDR1 (Homo sapiens, UniProt Q08345). A digest of the protocol:
as §1

In the next assay the target is T3, GCN2(Kin.Dom.2,S808G) (Homo sapiens, UniProt Q9P2K8, S808G).
T3 construct: gene EIF2AK4; Kin.Dom.2
A digest of the protocol:
as §1

For a further assay, the target named is T4, JNK3 (Homo sapiens, UniProt P53779).
T4 construct: gene MAPK10
Summed up: as §1

For a further assay, the target named is MAP3K1 (Homo sapiens, UniProt Q13233). Summed up: as §1
The target of the next assay is PKMYT1 (Homo sapiens, UniProt Q99640). Summed up:
as §1

Another assay concerns the target PRKCI (Homo sapiens, UniProt P41743). A digest of the protocol:
as §1

Assay [2] addresses T5, RSK2(Kin.Dom.2-C-terminal) (Homo sapiens, UniProt P51812).
T5 construct: gene RPS6KA3; Kin.Dom.2-C-terminal
A digest of the protocol:
as §1

Assay [3] addresses T6, RSK3(Kin.Dom.1-N-terminal) (Homo sapiens, UniProt Q15349).
T6 construct: gene RPS6KA2; Kin.Dom.1-N-terminal
Summed up:
as §1

The next assay concerns the target T7, TAK1 (Homo sapiens, UniProt O43318).
T7 construct: gene MAP3K7
Summed up:
as §1

The target in another assay is TLK2 (Homo sapiens, UniProt Q86UE8). A digest of the protocol:
as §1

Assay [4] concerns the target T8, TYK2(JH2domain-pseudokinase) (Homo sapiens, UniProt P29597).
T8 construct: JH2domain-pseudokinase
A digest of the protocol: as §1

For another assay, the target named is WNK3 (Homo sapiens, UniProt Q9BYP7). A digest of the protocol:
as §1

Another assay addresses T9, YSK4 (Homo sapiens, UniProt Q56UN5).
T9 construct: gene MAP3K19
A digest of the protocol: as §1

By inhibition is commonly meant the change of the read-out against control, counted positive when it falls.

The structures appear in SMILES notation.

Chain of PRKCI (P41743 whole entry): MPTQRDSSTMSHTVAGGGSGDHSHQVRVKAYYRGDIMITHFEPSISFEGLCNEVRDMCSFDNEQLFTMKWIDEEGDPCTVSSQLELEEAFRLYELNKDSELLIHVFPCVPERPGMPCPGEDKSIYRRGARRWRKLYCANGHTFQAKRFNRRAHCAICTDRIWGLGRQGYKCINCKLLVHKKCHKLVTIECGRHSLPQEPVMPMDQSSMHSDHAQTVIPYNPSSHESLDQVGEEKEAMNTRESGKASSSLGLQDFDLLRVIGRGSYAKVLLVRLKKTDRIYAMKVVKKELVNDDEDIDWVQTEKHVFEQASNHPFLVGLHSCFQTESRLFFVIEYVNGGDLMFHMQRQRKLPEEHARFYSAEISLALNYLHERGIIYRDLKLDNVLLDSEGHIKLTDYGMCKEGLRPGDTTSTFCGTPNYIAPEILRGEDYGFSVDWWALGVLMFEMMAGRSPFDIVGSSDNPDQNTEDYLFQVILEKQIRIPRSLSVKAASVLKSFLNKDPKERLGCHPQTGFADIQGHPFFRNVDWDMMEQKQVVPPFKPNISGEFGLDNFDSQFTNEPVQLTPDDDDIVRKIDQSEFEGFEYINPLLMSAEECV
T4 sequence (P53779 whole entry): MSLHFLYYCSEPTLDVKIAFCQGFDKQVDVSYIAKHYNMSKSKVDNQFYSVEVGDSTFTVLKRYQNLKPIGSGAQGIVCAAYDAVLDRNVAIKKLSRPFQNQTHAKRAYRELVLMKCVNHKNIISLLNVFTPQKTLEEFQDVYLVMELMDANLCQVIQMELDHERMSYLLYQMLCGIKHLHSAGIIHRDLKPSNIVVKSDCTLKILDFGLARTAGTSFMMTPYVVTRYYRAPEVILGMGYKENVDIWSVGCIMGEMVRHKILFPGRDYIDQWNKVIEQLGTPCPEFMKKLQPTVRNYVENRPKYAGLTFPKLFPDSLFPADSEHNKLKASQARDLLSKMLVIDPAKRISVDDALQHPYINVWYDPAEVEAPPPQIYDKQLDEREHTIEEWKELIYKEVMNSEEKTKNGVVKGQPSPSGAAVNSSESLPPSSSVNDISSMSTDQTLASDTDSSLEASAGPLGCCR
Chain of DDR1 (Q08345 whole entry): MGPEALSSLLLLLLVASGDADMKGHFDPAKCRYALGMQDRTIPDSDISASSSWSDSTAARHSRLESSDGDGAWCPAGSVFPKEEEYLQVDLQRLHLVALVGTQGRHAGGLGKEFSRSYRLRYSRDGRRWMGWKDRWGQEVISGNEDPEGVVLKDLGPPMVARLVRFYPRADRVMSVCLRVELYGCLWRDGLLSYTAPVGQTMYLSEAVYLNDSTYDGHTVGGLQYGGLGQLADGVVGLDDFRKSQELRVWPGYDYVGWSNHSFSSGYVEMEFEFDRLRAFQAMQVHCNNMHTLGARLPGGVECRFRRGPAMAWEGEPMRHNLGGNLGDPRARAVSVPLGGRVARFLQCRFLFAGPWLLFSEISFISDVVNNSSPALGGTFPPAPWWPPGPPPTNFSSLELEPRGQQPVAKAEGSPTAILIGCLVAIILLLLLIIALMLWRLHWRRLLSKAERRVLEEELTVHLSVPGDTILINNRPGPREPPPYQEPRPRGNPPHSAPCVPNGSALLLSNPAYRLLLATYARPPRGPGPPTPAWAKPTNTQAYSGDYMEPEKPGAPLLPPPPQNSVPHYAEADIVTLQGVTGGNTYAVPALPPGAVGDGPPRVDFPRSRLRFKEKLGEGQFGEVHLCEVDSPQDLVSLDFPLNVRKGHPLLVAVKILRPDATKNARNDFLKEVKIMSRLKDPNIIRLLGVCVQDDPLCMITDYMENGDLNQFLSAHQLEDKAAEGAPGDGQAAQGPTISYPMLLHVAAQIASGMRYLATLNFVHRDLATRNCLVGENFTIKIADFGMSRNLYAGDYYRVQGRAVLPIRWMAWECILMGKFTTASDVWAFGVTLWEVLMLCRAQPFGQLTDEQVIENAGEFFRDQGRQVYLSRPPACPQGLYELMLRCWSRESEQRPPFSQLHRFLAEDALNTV
Chain of CDKL2 (Q92772 whole entry): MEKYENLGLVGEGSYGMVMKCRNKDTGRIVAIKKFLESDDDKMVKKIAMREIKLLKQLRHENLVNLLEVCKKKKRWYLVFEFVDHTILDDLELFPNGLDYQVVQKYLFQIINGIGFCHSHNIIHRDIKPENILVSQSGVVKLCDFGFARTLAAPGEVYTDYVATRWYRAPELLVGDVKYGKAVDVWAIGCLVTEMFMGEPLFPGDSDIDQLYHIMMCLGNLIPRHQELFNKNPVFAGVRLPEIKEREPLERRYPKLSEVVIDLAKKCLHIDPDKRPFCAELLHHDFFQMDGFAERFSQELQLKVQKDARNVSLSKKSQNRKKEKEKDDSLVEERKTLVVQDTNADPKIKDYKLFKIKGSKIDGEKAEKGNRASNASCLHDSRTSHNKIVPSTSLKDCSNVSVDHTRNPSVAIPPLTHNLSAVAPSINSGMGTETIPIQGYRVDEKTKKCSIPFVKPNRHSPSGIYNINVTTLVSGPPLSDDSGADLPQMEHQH
Chain of DAPK1 (P53355 whole entry): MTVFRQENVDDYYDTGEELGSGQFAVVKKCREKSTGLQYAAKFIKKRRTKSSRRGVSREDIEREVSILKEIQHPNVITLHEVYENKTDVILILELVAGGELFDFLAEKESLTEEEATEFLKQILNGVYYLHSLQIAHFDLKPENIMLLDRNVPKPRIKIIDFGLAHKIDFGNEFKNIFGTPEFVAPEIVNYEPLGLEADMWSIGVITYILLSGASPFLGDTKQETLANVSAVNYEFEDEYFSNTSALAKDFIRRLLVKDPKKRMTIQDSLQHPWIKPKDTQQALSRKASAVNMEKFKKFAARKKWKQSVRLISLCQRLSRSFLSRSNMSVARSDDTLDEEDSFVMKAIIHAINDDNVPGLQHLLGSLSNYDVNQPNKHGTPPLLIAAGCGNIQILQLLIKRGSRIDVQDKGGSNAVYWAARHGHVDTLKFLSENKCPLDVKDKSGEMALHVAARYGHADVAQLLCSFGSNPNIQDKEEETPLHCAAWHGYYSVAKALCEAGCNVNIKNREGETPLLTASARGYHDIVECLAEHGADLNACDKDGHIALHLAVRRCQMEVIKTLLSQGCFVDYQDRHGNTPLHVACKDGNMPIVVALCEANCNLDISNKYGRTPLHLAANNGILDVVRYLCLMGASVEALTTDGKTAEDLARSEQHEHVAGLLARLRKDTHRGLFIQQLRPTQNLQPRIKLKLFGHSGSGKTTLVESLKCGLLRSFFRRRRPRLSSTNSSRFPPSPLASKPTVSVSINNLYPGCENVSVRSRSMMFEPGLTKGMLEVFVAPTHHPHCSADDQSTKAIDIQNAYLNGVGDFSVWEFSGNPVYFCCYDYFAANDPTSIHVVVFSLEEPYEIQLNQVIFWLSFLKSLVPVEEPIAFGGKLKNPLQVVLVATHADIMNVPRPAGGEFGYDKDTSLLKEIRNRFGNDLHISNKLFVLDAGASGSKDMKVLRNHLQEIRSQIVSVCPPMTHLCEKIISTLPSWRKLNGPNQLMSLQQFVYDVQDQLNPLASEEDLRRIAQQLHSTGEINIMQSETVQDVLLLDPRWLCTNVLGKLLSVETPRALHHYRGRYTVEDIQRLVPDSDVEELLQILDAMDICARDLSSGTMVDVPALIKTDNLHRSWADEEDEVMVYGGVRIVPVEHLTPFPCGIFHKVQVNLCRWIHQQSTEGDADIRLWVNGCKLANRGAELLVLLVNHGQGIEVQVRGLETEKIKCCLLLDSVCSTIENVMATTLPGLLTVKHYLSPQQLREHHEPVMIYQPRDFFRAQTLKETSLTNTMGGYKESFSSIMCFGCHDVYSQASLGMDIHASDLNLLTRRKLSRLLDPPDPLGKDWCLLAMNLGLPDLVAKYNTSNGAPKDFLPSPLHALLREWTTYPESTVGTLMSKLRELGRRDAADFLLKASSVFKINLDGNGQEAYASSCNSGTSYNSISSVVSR
Chain of PKMYT1 (Q99640 whole entry): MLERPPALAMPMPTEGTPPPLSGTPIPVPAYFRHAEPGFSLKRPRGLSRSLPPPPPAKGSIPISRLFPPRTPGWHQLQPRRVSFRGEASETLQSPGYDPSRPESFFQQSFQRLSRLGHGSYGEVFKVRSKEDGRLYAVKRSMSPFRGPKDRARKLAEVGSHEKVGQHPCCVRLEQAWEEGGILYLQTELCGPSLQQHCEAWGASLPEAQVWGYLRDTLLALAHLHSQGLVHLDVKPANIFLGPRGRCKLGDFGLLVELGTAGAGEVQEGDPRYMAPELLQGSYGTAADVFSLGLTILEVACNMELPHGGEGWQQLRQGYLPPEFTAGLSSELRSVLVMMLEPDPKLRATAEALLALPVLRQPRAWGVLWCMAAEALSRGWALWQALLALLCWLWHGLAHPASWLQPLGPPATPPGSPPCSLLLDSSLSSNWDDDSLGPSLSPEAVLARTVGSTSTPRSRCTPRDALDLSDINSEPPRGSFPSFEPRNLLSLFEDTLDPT
Chain of CDK7 (P50613 whole entry): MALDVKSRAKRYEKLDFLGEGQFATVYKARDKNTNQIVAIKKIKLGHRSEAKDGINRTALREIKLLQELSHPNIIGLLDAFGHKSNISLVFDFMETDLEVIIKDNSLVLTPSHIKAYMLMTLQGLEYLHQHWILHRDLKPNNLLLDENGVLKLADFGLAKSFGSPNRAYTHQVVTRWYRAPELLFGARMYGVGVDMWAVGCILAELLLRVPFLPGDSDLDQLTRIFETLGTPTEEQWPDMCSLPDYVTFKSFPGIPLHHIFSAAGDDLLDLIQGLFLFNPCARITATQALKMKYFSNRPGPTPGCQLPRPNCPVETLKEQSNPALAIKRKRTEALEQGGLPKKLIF

As for `CNS(=O)(=O)c1ccc(N(C)C)c(Nc2ncnc3cc(OC)c(OC)cc23)c1` [compound 7, 3-((6,7-dimethoxyquinazolin-4-yl)amino)-4-(dimethylamino)-N-methylbenzenesulfonamide], the inhibition at 1 µM in assay [1] amounted to 40%; at ARK5 it was 0%; at BRAF, 84%; at CAMK2A, 9%; at CASK it was 0%; at CDK7 it was 6%. For the same compound, the inhibition at 1 µM came to 0% on CDKL2; 0% on CDKL3; 9% at CDKL5; 0% at CSK; 0% on DAPK1; 0% on DDR1. For the same compound, the inhibition at 1 µM is 7% on GCN2(Kin.Dom.2,S808G); 0% on JNK3; 0% at MAP3K1; 0% at PKMYT1; 5% at PRKCI; 33% in assay [2]. Further, the inhibition at 1 µM in assay [3] stood at 0%; on TAK1 it was 51%; at TLK2, 0%; in assay [4], 0%; at WNK3 it was 2%; at YSK4, 72%.
